# From PubChem BioAssay (NCI)
#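 Results reflect a 48-hour exposure of cells in 96-well plates to compound at five concentrations. GI50: concentration for 50% inhibition of growth. TGI is the concentration that stops growth completely.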
# Key:
# Test in all cases: inhibition of tumour cell growth, NCI panel, 48 h
# 786-0 renal = test system: 786-0 renal
# A498 renal = test system: A498 renal
# A549 NSCLC = test system: A549 NSCLC
# ACHN renal = test system: ACHN renal
# BT-549 breast = test system: BT-549 breast
# CCRF-CEM leukemia = test system: CCRF-CEM leukemia
# COLO 205 colon = test system: COLO 205 colon
# DU-145 prostate = test system: DU-145 prostate
# EKVX NSCLC = test system: EKVX NSCLC
# HCC-2998 colon = test system: HCC-2998 colon
# HCT-15 colon = test system: HCT-15 colon
# HL-60(TB) leukemia = test system: HL-60(TB) leukemia
# HOP-62 NSCLC = test system: HOP-62 NSCLC
# HOP-92 NSCLC = test system: HOP-92 NSCLC
# HS 578T breast = test system: HS 578T breast
# HT29 colon = test system: HT29 colon
# IGROV1 ovarian = test system: IGROV1 ovarian
# K-562 leukemia = test system: K-562 leukemia
# KM12 colon = test system: KM12 colon
# MALME-3M melanoma = test system: MALME-3M melanoma
# MCF7 breast = test system: MCF7 breast
# MDA-MB-231 breast = test system: MDA-MB-231 breast
# MOLT-4 leukemia = test system: MOLT-4 leukemia
# NCI-H226 lung = test system: NCI-H226 lung
# NCI-H23 lung = test system: NCI-H23 lung
# NCI-H460 lung = test system: NCI-H460 lung
# NCI-H522 lung = test system: NCI-H522 lung
# NCI/ADR-RES ovarian = test system: NCI/ADR-RES ovarian
# OVCAR-3 ovarian = test system: OVCAR-3 ovarian
# OVCAR-4 ovarian = test system: OVCAR-4 ovarian
# OVCAR-5 ovarian = test system: OVCAR-5 ovarian
# OVCAR-8 ovarian = test system: OVCAR-8 ovarian
# PC-3 prostate = test system: PC-3 prostate
# RPMI-8226 leukemia = test system: RPMI-8226 leukemia
# RXF 393 renal = test system: RXF 393 renal
# SF-268 CNS = test system: SF-268 CNS
# SF-295 CNS = test system: SF-295 CNS
# SF-539 CNS = test system: SF-539 CNS
# SK-MEL-2 melanoma = test system: SK-MEL-2 melanoma
# SK-MEL-28 melanoma = test system: SK-MEL-28 melanoma
# SK-MEL-5 melanoma = test system: SK-MEL-5 melanoma
# SK-OV-3 ovarian = test system: SK-OV-3 ovarian
# SN12C renal = test system: SN12C renal
# SNB-19 CNS = test system: SNB-19 CNS
# SNB-75 CNS = test system: SNB-75 CNS
# SR leukemia = test system: SR leukemia
# SW-620 colon = test system: SW-620 colon
# T-47D breast = test system: T-47D breast
# TK-10 renal = test system: TK-10 renal
# U251 CNS = test system: U251 CNS
# UACC-257 melanoma = test system: UACC-257 melanoma
# UACC-62 melanoma = test system: UACC-62 melanoma
# UO-31 renal = test system: UO-31 renal
smiles,measurement,setting,value
C=CCn1c(SCC(=O)Nc2ccc(C(=O)/C=C/c3cc(OC)c(OC)c(OC)c3)cc2)nnc1-c1ccc(Cl)cc1,GI50,786-0 renal,2160 nM
same,TGI,786-0 renal,5.59 µM
same,GI50,A498 renal,2470 nM
same,TGI,A498 renal,10.6 µM
same,GI50,A549 NSCLC,3.61 µM
same,TGI,A549 NSCLC,17.3 µM
same,GI50,ACHN renal,3.67 µM
same,TGI,ACHN renal,22 µM
same,GI50,BT-549 breast,2400 nM
same,TGI,BT-549 breast,7.79 µM
same,GI50,CCRF-CEM leukemia,2380 nM
same,TGI,CCRF-CEM leukemia,13.3 µM
same,GI50,COLO 205 colon,4.92 µM
same,TGI,COLO 205 colon,67.3 µM
same,GI50,DU-145 prostate,3.73 µM
same,TGI,DU-145 prostate,40.9 µM
same,GI50,EKVX NSCLC,2920 nM
same,TGI,EKVX NSCLC,15.5 µM
same,GI50,HCC-2998 colon,2360 nM
same,TGI,HCC-2998 colon,5.67 µM
same,GI50,HCT-15 colon,2680 nM
same,TGI,HCT-15 colon,18.8 µM
same,GI50,HL-60(TB) leukemia,2650 nM
same,TGI,HL-60(TB) leukemia,11.3 µM
same,GI50,HOP-62 NSCLC,3.76 µM
same,TGI,HOP-62 NSCLC,23.8 µM
same,GI50,HOP-92 NSCLC,2470 nM
same,TGI,HOP-92 NSCLC,11.8 µM
same,GI50,HS 578T breast,5.81 µM
same,TGI,HS 578T breast,> 100 µM
same,GI50,HT29 colon,2330 nM
same,TGI,HT29 colon,5.69 µM
same,GI50,IGROV1 ovarian,2760 nM
same,TGI,IGROV1 ovarian,13 µM
same,GI50,K-562 leukemia,1700 nM
same,TGI,K-562 leukemia,10.5 µM
same,GI50,KM12 colon,1970 nM
same,TGI,KM12 colon,5.23 µM
same,GI50,MALME-3M melanoma,6.69 µM
same,TGI,MALME-3M melanoma,61.5 µM
same,GI50,MCF7 breast,380 nM
same,TGI,MCF7 breast,11.2 µM
same,GI50,MDA-MB-231 breast,3.08 µM
same,TGI,MDA-MB-231 breast,> 100 µM
same,GI50,MOLT-4 leukemia,2660 nM
same,TGI,MOLT-4 leukemia,11.4 µM
same,GI50,NCI-H226 lung,1940 nM
same,TGI,NCI-H226 lung,7.42 µM
same,GI50,NCI-H23 lung,2700 nM
same,TGI,NCI-H23 lung,10.5 µM
same,GI50,NCI-H460 lung,3.41 µM
same,TGI,NCI-H460 lung,13.5 µM
same,GI50,NCI-H522 lung,3.25 µM
same,TGI,NCI-H522 lung,17.4 µM
same,GI50,NCI/ADR-RES ovarian,4.74 µM
same,TGI,NCI/ADR-RES ovarian,> 100 µM
same,GI50,OVCAR-3 ovarian,2410 nM
same,TGI,OVCAR-3 ovarian,5.93 µM
same,GI50,OVCAR-4 ovarian,3.1 µM
same,TGI,OVCAR-4 ovarian,21 µM
same,GI50,OVCAR-5 ovarian,4.75 µM
same,TGI,OVCAR-5 ovarian,67.7 µM
same,GI50,OVCAR-8 ovarian,2790 nM
same,TGI,OVCAR-8 ovarian,15 µM
same,GI50,PC-3 prostate,3.2 µM
same,TGI,PC-3 prostate,26.4 µM
same,GI50,RPMI-8226 leukemia,253 nM
same,TGI,RPMI-8226 leukemia,1030 nM
same,GI50,RXF 393 renal,1470 nM
same,TGI,RXF 393 renal,3.37 µM
same,GI50,SF-268 CNS,4.32 µM
same,TGI,SF-268 CNS,> 100 µM
same,GI50,SF-295 CNS,4.49 µM
same,TGI,SF-295 CNS,48.8 µM
same,GI50,SF-539 CNS,2960 nM
same,TGI,SF-539 CNS,9.83 µM
same,GI50,SK-MEL-2 melanoma,4.52 µM
same,TGI,SK-MEL-2 melanoma,36.6 µM
same,GI50,SK-MEL-28 melanoma,4.23 µM
same,TGI,SK-MEL-28 melanoma,54.6 µM
same,GI50,SK-MEL-5 melanoma,2530 nM
same,TGI,SK-MEL-5 melanoma,14.3 µM
same,GI50,SK-OV-3 ovarian,6.01 µM
same,TGI,SK-OV-3 ovarian,58.3 µM
same,GI50,SN12C renal,3.43 µM
same,TGI,SN12C renal,> 100 µM
same,GI50,SNB-19 CNS,3.64 µM
same,TGI,SNB-19 CNS,> 100 µM
same,GI50,SNB-75 CNS,1790 nM
same,TGI,SNB-75 CNS,12.8 µM
same,GI50,SR leukemia,1520 nM
same,TGI,SR leukemia,7.45 µM
same,GI50,SW-620 colon,3 µM
same,TGI,SW-620 colon,> 100 µM
same,GI50,T-47D breast,2240 nM
same,TGI,T-47D breast,30.6 µM
same,GI50,TK-10 renal,7.87 µM
same,TGI,TK-10 renal,61.3 µM
same,GI50,U251 CNS,1730 nM
same,TGI,U251 CNS,4.38 µM
same,GI50,UACC-257 melanoma,6.38 µM
same,TGI,UACC-257 melanoma,59.6 µM
same,GI50,UACC-62 melanoma,2940 nM
same,TGI,UACC-62 melanoma,25 µM
same,GI50,UO-31 renal,1980 nM
same,TGI,UO-31 renal,8.34 µM
